# Data taken from patent publication US20170290336A1, “Isolated Bacterial Strain of the Genus Burkholderia and Pesticidal Metabolites Therefrom” (Marrone Bio Innovations, Inc., priority 2010, published 2017).
# What was measured:
# lettuce = test: 96 well plate lettuce seeding assay; assay type: in vivo; conditions: bioassay-guided isolation
# Experimental: The culture broth derived from the 10-L fermentation Burkholderia (A396) in Hy soy growth medium is extracted with Amberlite XAD-7 resin (Asolkar et al., 2006) by shaking the cell suspension with resin at 225 rpm for two hours at room temperature. The resin and cell mass are collected by filtration through cheesecloth and washed with DI water to remove salts. The resin, cell mass, and cheesecloth are then soaked for 2 h in acetone after which the acetone is filtered and dried under vacuum using rotary evaporator to give the crude extract. The crude extract is then fractionated by using reversed-phase C18 vacuum liquid chromatography (H2O/CH3OH; gradient […] to 0:100%) to give 10 fractions. These fractions are then concentrated to dryness using rotary evaporator and the resulting dry residues are screened for biological activity using 96 well plate lettuce seeding assay. The active fractions are then subjected to reversed phase HPLC (Spectra System P4000 (Thermo Scientific) to give pure compounds, which are then screened in above mentioned bioassays to locate/identify the active compounds. To confirm the identity of the compound, additional spectroscopic data such as LC/MS and NMR is recorded.
# B. cepacia isolates = conditions: 366 B. cepacia isolates; cited from earlier work
# [1] = test system: barnyard grass (Echinochloa crus-galli) seedlings; test: Herbicidal laboratory assay, 96-well plate; assay type: in vivo; conditions: after five days; for Grass seedlings (% Mortality): 10 μg/mL concentration per well
# Experimental: The herbicidal activity of the active compound FR90128 (MW 540) is tested in a laboratory assay using one-week old barnyard grass (Echinochloa crus-galli) seedlings in a 96-well plate platform. One grass seedling was placed in each of the wells containing 99 microliters of DI water. One microliter aliquot of the pure compound in ethanol (10 mg/mL) is added into each well, and the plate is sealed with a lid. One microliter of ethanol in 99 microliters of water is used as a negative control. The treatments were done in eight replicates, and the sealed plate is incubated in a greenhouse under artificial lights (12 hr light/dark cycle). After five days, the results are read.
# (§1) The herbicidal activity of templamide A, B, FR901465 and FR90128 are tested in a laboratory assay using one-week old barnyard grass (Echinochloa crus-galli) and lettuce (Lactuca sativa L.) seedlings in a 96-well plate platform. One seedling is placed in each of the wells containing 99 microliters of DI water. Into each well, a one microliter aliquot of the pure compound in ethanol (10 mg/mL) is added, and the plate is sealed with a lid. One microliter of ethanol in 99 microliters of water is used as a negative control. The treatments are done in eight replicates, and the sealed plate is incubated in a greenhouse under artificial lights (12 hr light/dark cycle). After five days, the results are read. […] The herbicidal activity of templamide A against lettuce seedlings is slightly lower than for the grass. On the other hand, templamide B provides a better (100%) control of lettuce seedlings (used as a model system for broadleaf weeds) than templamide A (Table 11).
# [2] = test system: 1st instar Beet Army Worm (Spodoptera exigua); test: 96-well diet overlay assay; assay type: in vivo; conditions: 10 μg/mL concentration per well, 100 μl on diet, 6 days at 26° C.; for mortality at 10 µg/mL: Spodoptera exigua, 144 h
# Experimental: The insecticidal activity of templamide A, B, FR901465 and FR90128 are tested in a laboratory assay using a 96-well diet overlay assay with ^1st instar Beet Armyworm larvae using microtiter plates with 200 μl of solid, artificial Beet Armyworm diet in each well. One hundred (100) μl of each test sample is pipetted on the top of the diet (one sample in each well), and the sample is let dry under flowing air until the surface is dry. Each sample was tested in six replicates, and water and a commercial Bt (B. thuringiensis) product are used as negative and positive controls, respectively. One first instar larvae of the test insect (Beet armyworm—Spodoptera exiqua) was placed in each well, and the plate was covered with plastic cover with airholes. The plates with insects were incubated at 26° C. for 6 days with daily mortality evaluations. Based on the results presented in Table 12, templamide A and B results in 40% and 80% mortality, respectively.
# Botrytis cinerea = test: In vitro PDA plate assay, filter paper disks; assay type: cell-based; conditions: 5 days
# Experimental: (§2) Fungicidal activity of FR90128 (MW 540) against three plant pathogenic fungi (Botrytis cinerea, Phytophtora sp., Monilinia fructicola) is tested in an in vitro PDA (potato dextrose agar) plate assay. Plates are inoculated with the fungus using a plug method. After the fungus had established and started to grow on the growth medium, eight sterile filter paper disks are placed on each plate about 1 cm from the edge in a circle. Ten microliters of ethanol solution containing 20, 15, 10, 7.5, 5, 2.5 1.25 mg FR90128/mL is added into filter paper disks, and the solution is left to evaporate. One disk imbedded with 10 μL of pure ethanol is used as a negative control. The assay is done with three replicates. Plates are incubated at room temperature for 5 days, after which the fungicidal activity is recorded by measuring the inhibition zone around each filter paper disk corresponding to different concentrations of FR90128.
# Monilinia fructicola = test: In vitro PDA plate assay, filter paper disks; assay type: cell-based; conditions: 10 μL of 1.25-20 mg/mL on disks; 5 days
# Experimental: as §2
# Phytophtora sp. = test: In vitro PDA plate assay, filter paper disks; assay type: cell-based; conditions: 5 days
# Experimental: as §2
# [3] = test system: lettuce (Lactuca sativa L.) seedlings; test: Herbicidal laboratory assay, 96-well plate; assay type: in vivo; conditions: 10 μg/mL concentration per well, after five days
# Experimental: as §1
# Burkholderia A396 = test: Antibiotic susceptibility, antibiotic disks on Muller-Hinton medium; assay type: cell-based, Burkholderia sp. A396; conditions: 72-hour incubation at 25° C.
# Experimental: Antibiotic susceptibility of Burkholderia A396 is tested using antibiotic disks on Muller-Hinton medium as described in PML Microbiological's technical data sheet #535.
# B. cepacia complex = conditions: 2,621 strains in B. cepacia complex from cystic fibrosis patients; cited from earlier work
# [4] = test system: green peach aphid (Myzus persicae); test: Sucking insect test in vivo on mustard plants; conditions: positive control (Avid) sprayed; 10 aphids at Day 0
# Experimental: The in vivo efficacy of the filtered whole cell broth is tested in a plant assay with mustard plants and green peach aphid (Myzus persicae) as the test insect. Approximately one-month-old Florida Broadleaf mustard (Brassica sp.) plants are sprayed with two different concentrations (1× and 0.5×) of the filter sterilized whole cell broth of Burkholderia sp. using a Paasche airbrush. Water and a commercial product of avermectin (Avid) are used as negative and positive controls, respectively. The plants are allowed to dry on the benchtop, after which they are placed in a 6-cup plastic container with a lid with airholes. Ten aphids at various developmental stages are placed on each test plant, and the plants are incubated under growth lamps for 7 days at 25° C. Daily evaluations for the number of aphids on each plant (summarized in table Table 8 below) are made and recorded in a notebook.
# [5] = 10 μL of 1.25-20 mg/mL on disks
molecule,measurement,setting,value
COC(=O)c1nc(CC(C)C)oc1-c1c[nH]c2ccccc12 [templazole A],herbicidal activity of pure compound (in words),lettuce,active
CO/N=C(\C(=O)N[C@@H]1C(=O)N2C(C(=O)O)=C(COC(N)=O)CS[C@H]12)c1ccco1 [Cefuroxime],resistance of isolates (in words),B. cepacia isolates,most of them are resistant
C/C=C1\NC(=O)C2CSSCC/C=C/C(CC(=O)NC(C(C)C)C(=O)N2)OC(=O)C(C(C)C)NC1=O (centres unmarked) [FR90128],state of grass seedlings (in words),"[1]; 1 microliter of 10 mg/mL in ethanol added to 99 microliters water, all eight wells",dead with no green tissue left
same,mortality at 10 µg/mL,[2],90%
same,effect on hyphal growth of Botrytis (in words),Botrytis cinerea; [5],effective in controlling the hyphal growth
same,"threshold concentration for inhibition, Botrytis",Botrytis cinerea; 10 μL per filter paper disk,10 mg/mL
same,effect on the growth of Monilinia (in words),Monilinia fructicola,no effect
same,effect on hyphal growth of Phytophtora (in words),Phytophtora sp.; [5],effective in controlling the hyphal growth
same,"threshold concentration for inhibition, Phytophtora",Phytophtora sp.; 10 μL per filter paper disk,1.25 mg/mL
CCC(=O)OC(C)/C=C\C(=O)NC1CC(C)C(C/C=C(C)/C=C/C2OC(C)(O)C(O)C3(CO3)C2O)OC1C (centres unmarked) [FR901465],Grass seedlings (% Mortality),[1],88%
same,Lettuce seedlings (% Mortality),[3],100%
same,(% Mortality),[2],50%
CCN1CCN(C(=O)N[C@@H](C(=O)N[C@@H]2C(=O)N3[C@@H]2SC(C)(C)[C@@H]3C(=O)O)c2ccccc2)C(=O)C1=O [Piperacillin],Susceptibility of Burkholderia A396 (in words),Burkholderia A396,susceptible
CN(C)[C@@H]1C(O)=C(C(N)=O)C(=O)[C@@]2(O)C(O)=C3C(=O)c4c(O)cccc4[C@@](C)(O)[C@H]3C[C@@H]12 [Tetracycline],resistance of isolates (in words),B. cepacia isolates,most of them are resistant
Cc1cc(NS(=O)(=O)c2ccc(N)cc2)no1 [sulphametoxacole],resistance of isolates (in words),B. cepacia isolates,most of them are resistant
templazole B,herbicidal activity of pure compound (in words),lettuce,herbicidally active
O=C(N[C@H](CO)[C@H](O)c1ccc([N+](=O)[O-])cc1)C(Cl)Cl [Chloramphenicol],Susceptibility of Burkholderia A396 (in words),Burkholderia A396,susceptible
same,strains resistant,B. cepacia complex,85%
same,strains susceptible,B. cepacia complex,15%
same,resistance of isolates (in words),B. cepacia isolates,most of them are resistant
CCC(=O)OC(C)/C=C\C(=O)NC1CC(C)C(C/C=C(C)/C=C/C2OC(C)(O)C(O)C(O)(CO)C2O)OC1C (centres unmarked) [Templamide A],mortality at 10 µg/mL,[2],40%
CCC(=O)OC(C)/C=C\C(=O)NC1CC(C)C(C/C=C(C)/C=C/C2OC(C)(O)C(O)C3(CO3)C2O)OC1C (centres unmarked) [Templamide B],Grass seedlings (% Mortality),[1],0%
same,Lettuce seedlings (% Mortality),[3],75%
same,Lettuce seedlings (% Mortality),[3]; listed as templamide B,100%
same,(% Mortality),[2],80%
O=C(O)c1cn(C2CC2)c2cc(N3CCNCC3)c(F)cc2c1=O [Ciprofloxacin],Susceptibility of Burkholderia A396 (in words),Burkholderia A396,susceptible
same,strains susceptible,B. cepacia complex,5%
same,resistance of isolates (in words),B. cepacia isolates,most of them are resistant
C[C@@H](O)[C@H]1C(=O)N2C(C(=O)O)=C(SCCN=CN)C[C@H]12 [Imipenem],Susceptibility of Burkholderia A396 (in words),Burkholderia A396,susceptible
same,strains susceptible,B. cepacia complex,7%
same,resistance of isolates (in words),B. cepacia isolates,most of them are resistant
CC[C@H](C)[C@H]1O[C@]2(C=C[C@@H]1C)C[C@@H]1C[C@@H](C/C=C(\C)[C@@H](O[C@H]3C[C@H](OC)[C@@H](O[C@H]4C[C@H](OC)[C@@H](O)[C@H](C)O4)[C@H](C)O3)[C@@H](C)/C=C/C=C3\CO[C@@H]4[C@H](O)C(C)=C[C@@H](C(=O)O1)[C@]34O)O2 [Avermectin],# live aphids Day 2,[4],0
same,# live aphids Day 4,[4],0
same,# live aphids Day 7,[4],0
NC[C@H]1O[C@H](O[C@H]2[C@H](O)[C@@H](O[C@H]3O[C@H](CO)[C@@H](O)[C@H](N)[C@H]3O)[C@H](N)C[C@@H]2N)[C@H](O)[C@@H](O)[C@@H]1O [Kanamycin],Susceptibility of Burkholderia A396 (in words),Burkholderia A396,susceptible
